This is an account of results in patent US8765688B2, “Anti-dandruff compositions containing peptides” (priority 2007, dated 2014).

Ends that are not written are not given here.

Experiment [1] deals with Malassezia furfur. The experiment is described as follows: Incubation times with P18 from 5 minutes to 1 hour, CFU of M. furfur, compared to Zincpyrithione. It counts as cell-based. How it is done:
Since growth inhibition of M. furfur by the peptide P18 (P18 peptide sequence H-KWKLFKKIPKFLHLAKKF-NH2; SEQ ID NO: 3) had so far only been analyzed over incubation times of more than one hour, now the effect of the peptide P18 within the first minutes of incubation (5 minutes, 10 minutes and 20 minutes) up to the first hour after adding to the M. furfur overnight culture was tested and compared to the reference substance Zincpyrithione (Sigma Aldrich). For this, the peptide P18 and the reference substance Zincpyrithione were used in concentrations of 100 μM, 200 μM and 500 μM. The experiments were carried out as follows:
(§1) Growth medium: M472-Pityrosporum medium according to DSMZ
(§2) The components were sterilized at 121° C., 1 bar superatmospheric pressure for 20 minutes.
(§3) 2 g/L of olive oil (sterilized by filtration and, after autoclaving, added to the other components)
(§4) Since it was a two-phase medium, the complete medium was treated with sonication in order to enlarge the phase boundary.
(§5) For agar plates, if appropriate, 150 g/L of agar agar were added to the medium.
(§6) The growth test was carried out as follows: A shake flask with M472-Pityrosporum medium was inoculated with M. furfur and incubated with shaking overnight at 30° C. and 200 rpm.
A 96-well microtiter plate was filled with in each case 100 μl of M472-Pityrosporum medium and inoculated with M. furfur suspension of the overnight culture. The M. furfur suspension was adjusted at the start of the experiment to an optical density, measured at 600 nm, of 0.1.
The growth of the following batches was compared:
M. furfur suspension and addition of the peptide P18 with a final concentration of 100 μM, plating out after 5 minutes, 10 minutes, 20 minutes and 60 minutes
M. furfur suspension and addition of the peptide P18 with a final concentration of 200 μM plating out after 5 minutes, 10 minutes, 20 minutes and 60 minutes
M. furfur suspension and addition of the peptide P18 with a final concentration of 500 μM plating out after 5 minutes, 10 minutes, 20 minutes and 60 minutes
M. furfur suspension and addition of Zincpyrithione with a final concentration of 100 μM plating out after 5 minutes, 10 minutes, 20 minutes and 60 minutes
M. furfur suspension and addition of Zincpyrithione with a final concentration of 200 μM plating out after 5 minutes, 10 minutes, 20 minutes and 60 minutes
M. furfur suspension and addition of Zincpyrithione with a final concentration of 500 μM plating out after 5 minutes, 10 minutes, 20 minutes and 60 minutes
The microtiter plate was incubated with shaking at 30° C.
After the incubation times indicated above, the colony-forming units (CFU) were determined by plating out 50 μl from each of the suspensions and, after incubation for 6 days, counting the colonies. The CFU was determined in order to exclude an influence of the two-phase medium and also the growth form of M. furfur on the optical density. The experiments were independently repeated.

Experiment [2] concerns Malassezia furfur. The experiment is described as follows: Effect of P18 variants against M. furfur, CFU after 24 hours at 50 μM. It counts as cell-based. How it is done: The inhibitory effect of the following P18 variants against M. furfur was analyzed:
The experiments were carried out as follows:
as §1, §2, §3, §4, §5, §6
A 96-well microtiter plate was filled with in each case 100 μl of M472-Pityrosporum medium and inoculated with M. furfur suspension of the overnight culture. The M. furfur suspension was adjusted at the start of the experiment to an optical density, measured at 600 nm, of 0.1. […]
After 24 hours, the colony-forming units (CFU were determined by plating out 10 μl from each of the suspensions and, after incubation for 6 days, counting the colonies. Two independent experiments with in each case three identical mixtures were carried out and the number of colony-forming units was averaged.

For “KWKLFKKIPKFLHLAKKF-NH2 [P18, KWKLFKKIPKFLHLAKKF-NH2]”, the “number of living Malassezia furfur cells” value in the experiment on Malassezia furfur [1] (after the first 10 minutes of incubation) is recorded as “considerably reduced as compared to incubation with Zincpyrithione”. Also, the “colony-forming units after the indicated incubation time” value in the experiment on Malassezia furfur [1] (final concentration 100 μM, 5 minutes) is given as more than 1000; in the experiment with Malassezia furfur [1] (final concentration 100 μM, 10 minutes), more than 1000; with Malassezia furfur [1] (final concentration 100 μM, 20 minutes), 604; in the experiment on Malassezia furfur [1] (final concentration 100 μM, 60 minutes), 149 ± 60; in the experiment on Malassezia furfur [1] (final concentration 200 μM, 5 minutes), more than 1000; in the experiment with Malassezia furfur [1] (final concentration 200 μM, 10 minutes), more than 1000. Moreover, the “colony-forming units after the indicated incubation time” value in the experiment with Malassezia furfur [1] (final concentration 200 μM, 20 minutes) is more than 1000; in the experiment with Malassezia furfur [1] (final concentration 200 μM, 60 minutes) it was 52 ± 16; in the experiment with Malassezia furfur [1] (final concentration 500 μM, 5 minutes), more than 1000; in the experiment with Malassezia furfur [1] (final concentration 500 μM, 10 minutes), 398 ± 290; in the experiment on Malassezia furfur [1] (final concentration 500 μM, 20 minutes), 26 ± 6; in the experiment on Malassezia furfur [1] (final concentration 500 μM, 60 minutes) it was 1 ± 1. Moreover, the “Averaged number of colony-forming units (CFU)” value in the experiment with Malassezia furfur [2] (50 μM peptide in DMSO) came out at 0. Further, the “inhibitory effect against M. furfur compared to DMSO” value in the experiment with Malassezia furfur [2] (50 μM, effectiveness increasing in the order P18AC-OH, P18-OH, P18) was “increased inhibitory effect against M. furfur as compared to DMSO”.
